Broadly, the IC50 is the concentration at which inhibition is half-maximal. A low value points to higher potency.

The structures appear in SMILES notation.

The first experiment is described as follows: hexokinase 1 inhibition, dose response, selectivity assay for HKDC1 inhibitor project, biochemical (AID 504763).
Settings: not given
In turn, `O=C1C=C(c2c(O)ccc3ccccc23)c2ccccc2C1=O` [4-(2-hydroxy-1-naphthalenyl)naphthalene-1,2-dione] registered an IC50 of 5.1 µM. Regarding `O=C1c2ccccc2-c2onc3ccc(Oc4ccccc4)c1c23` [MLS000525578], the IC50 was above 80 µM. Turning to `CCOC(=O)C1=C(c2ccc(OC)cc2)C(=O)c2ccccc2C1=O` [SMR000185036], half-maximal inhibition (IC50) required 2.44 µM. With `Cc1ccc(C)c(S(=O)(=O)Nc2cc(SCC(=O)O)c(O)c3ccccc23)c1` [2-[4-[(2,5-dimethylphenyl)sulfonylamino]-1-hydroxynaphthalen-2-yl]sulfanylacetic acid], the midpoint of inhibition, the IC50, lay at 16.4 µM. For the compound `CC(=O)n1cc(N(C(=O)CCl)c2ccc([N+](=O)[O-])cc2)c2ccccc21` [2-chloranyl-N-(1-ethanoylindol-3-yl)-N-(4-nitrophenyl)ethanamide], the IC50 was above 80 µM. Still for that read-out and setting: to `O=C(NC1=C(NC2CCS(=O)(=O)C2)C(=O)c2ccccc2C1=O)c1ccccc1` (centres undefined) [N-[3-[(1,1-dioxo-3-thiolanyl)amino]-1,4-dioxo-2-naphthalenyl]benzamide] belongs 6.33 µM; to `O=C1C(Nc2ccc(O)cc2)=CC(=NS(=O)(=O)c2cccs2)c2ccccc21` [MLS000775432], 6.28 µM; to `Oc1nc2ccccc2n2c(-c3ccccc3)nnc12` [SMR000162081], 19 µM. The compound `Cc1nc2c(c(=O)c3ccccc3n2C)c(=O)n1-c1ccc(F)cc1` [SMR000439525] gave an IC50 of 8.78 µM.

`O=C(O)COc1ccc(C=NNC(=O)c2ccc(-c3csc(Nc4ccc(Cl)cc4)n3)cc2)cc1` [2-[4-[[[4-[2-(4-chloroanilino)-1,3-thiazol-4-yl]benzoyl]hydrazinylidene]methyl]phenoxy]acetic acid] showed an IC50 above 80 µM. In turn, `Cc1ccc(S(=O)(=O)N=C2C=C(Nc3cccc(C(=O)O)c3)C(=O)c3ccccc32)cc1` [MLS000948051] yielded an IC50 of 6.79 µM. In turn, `CCCC(=O)NC1=C(Cl)C(=O)c2ccccc2C1=O` registered an IC50 of 3.06 µM. The same measure, in the same setting: as for `Cc1ccc(C)c(-n2c3nc(=O)[nH]c(=O)c-3cc3cc([N+](=O)[O-])ccc32)c1` [10-(2,5-Dimethyl-phenyl)-7-nitro-10H-pyrimido[4,5-b]quinoline-2,4-dione], the figure is above 80 µM; as for `CC(=O)NC1C(=O)N(CCN2CCOCC2)c2ccc(Cl)cc21` (centres undefined) [MLS001215975], above 80 µM. As to `O=C(O)c1ccc(NC2=CC(=NS(=O)(=O)c3ccccc3)c3ccccc3C2=O)cc1` [SMR000313157], the concentration for half-maximal inhibition (IC50) is 1.63 µM. Same read-out and setting: as for `O=C(/C=C/c1cccs1)Nc1scc(-c2ccccc2)c1C(=O)O` [SMR000364116], the figure is above 80 µM; as for `CC(C)c1ccc(S(=O)(=O)N=C2C=C(Sc3nnc[nH]3)C(=O)c3ccccc32)cc1` [4-isopropyl-N-[(1Z)-4-oxo-3-(1H-1,2,4-triazol-3-ylthio)naphthalen-1(4H)-ylidene]benzenesulfonamide], 5.87 µM; as for `Cc1ccc(S(=O)(=O)N=C2C=C(Sc3nnc[nH]3)C(=O)c3ccccc32)cc1` [4-Methyl-N-[4-oxo-3-(2H-[1,2,4]triazol-3-ylsulfanyl)-4H-naphthalen-1-ylidene]-benzenesulfonamide], 3.29 µM. Consider `NS(=O)(=O)c1ccc(N=Nc2c(=O)[nH]n3c(=O)c4c([nH]c23)CCCC4)cc1` [SMR000231775], for which the IC50 stood at 12.4 µM. Take `Cc1cccc(N2C(=O)NC(=O)C(=Cc3cc(C)n(-c4sc5c(c4C#N)CCCC5)c3C)C2=O)c1C` [2-[3-[(E)-[1-(2,3-dimethylphenyl)-2,4,6-trioxo-1,3-diazinan-5-ylidene]methyl]-2,5-dimethylpyrrol-1-yl]-4,5,6,7-tetrahydro-1-benzothiophene-3-carbonitrile]: the IC50 was above 80 µM. On the same count and under the same terms, as for `O=C1C=CC(=O)c2c(O)c(CO)c(CO)c(O)c21` [5,8-dihydroxy-6,7-bis(hydroxymethyl)naphthalene-1,4-dione], the figure is above 80 µM; as for `COc1ccc(NC(=O)CSc2ccc(-c3ccco3)nn2)cc1OC` [MLS-0374858.0001], 17.7 µM. `COC1=C(Br)C(=O)c2ncccc2C1=O` [7-bromo-6-methoxyquinoline-5,8-dione] had an IC50 of 4.89 µM. For the compound `CCOC(=O)c1c(-n2c(C)cc(C=C3C(=O)NC(=S)NC3=O)c2C)sc2c1CCCC2` [ethyl 2-{3-[(4,6-dioxo-2-thioxotetrahydro-5(2H)-pyrimidinylidene)methyl]-2,5-dimethyl-1H-pyrrol-1-yl}-4,5,6,7-tetrahydro-1-benzothiophene-3-carboxylate], the IC50 is above 80 µM.

In the case of `O=C(CSc1nnc(-c2cccnc2)[nH]1)Nc1ccnc2ccccc12` [2-[(5-pyridin-3-yl-1H-1,2,4-triazol-3-yl)sulfanyl]-N-quinolin-4-yl-ethanamide], the IC50 was 11 µM. The same measure, in the same setting: to `COc1cc(NC(=O)c2cnc(N)s2)cc(C(=O)Nc2cccc(C(F)(F)F)c2)c1` [2-amino-N-[3-methoxy-5-[[3-(trifluoromethyl)phenyl]carbamoyl]phenyl]-1,3-thiazole-5-carboxamide] belongs above 80 µM. `CCc1nc2sc3c(O)ncnc3c2c2c1CSC(C)(C)C2` [MLS000776813] had an IC50 of 21.8 µM. As to `CC(=O)NC1C(=O)N(CCN2CCOCC2)c2ccc(Br)cc21` (centres undefined) [MLS001215987], the IC50 is above 80 µM.

Take `CCCc1nc2oc3c(OC)ncnc3c2c2c1COC(C)(C)C2` [MLS000559436]: the IC50 amounted to 18.5 µM. Consider `COc1ccc2cc(CCNC(=O)c3ccc(S(=O)(=O)N4CCCC4)cc3)c(O)nc2c1` [SMR000805966], for which the IC50 stood at 7.34 µM.

Take `O=[N+]([O-])c1ccc(Sc2nc3ccccc3o2)c([N+](=O)[O-])c1` [MLS000532050]: the IC50 was above 80 µM. Consider `COC(=O)c1cc(C)nc2c1C(=O)C(=O)C=C2N1CCOCC1` [MLS001208989], for which the IC50 is 16.6 µM. `Cc1nc([N+](=O)[O-])c(Br)n1CC(=O)c1ccc2ccccc2c1` [2-(5-bromanyl-2-methyl-4-nitro-imidazol-1-yl)-1-naphthalen-2-yl-ethanone] displayed an IC50 above 80 µM. `Cc1ccc(N2C(=O)NC(=O)C(=Cc3cc(C)n(-c4sc5c(c4C#N)CCCC5)c3C)C2=O)cc1` came in with an IC50 above 80 µM. `CCc1ccc(S(=O)(=O)N=C2C=C(Sc3nnc[nH]3)C(=O)c3ccccc32)cc1` returned an IC50 of 2.85 µM. Same read-out and setting: to `Cc1cc2cc(CCNC(=O)c3ccc(S(=O)(=O)N4CCOCC4)cc3)c(O)nc2cc1C` [SMR000025588] belongs 11.5 µM. Compound `O=C(CSc1nnc(CCCN2C(=O)c3cccc4cccc(c34)C2=O)n1-c1ccccc1)N1CCCCC1` had an IC50 of 9.74 µM.

For `O=C1C(N2CCOCC2)=C(n2nnc3ccccc32)C(=O)c2ccccc21` [2-(1-benzotriazolyl)-3-(4-morpholinyl)naphthalene-1,4-dione], inhibition was half-maximal at 7.58 µM (IC50).

`COC1=C(OC)C(=O)C(Sc2ccc3ccccc3c2)=CC1=O` [2,3-dimethoxy-5-naphthalen-2-ylsulfanylcyclohexa-2,5-diene-1,4-dione] registered an IC50 of 7.15 µM. For the compound `O=C1C=C(N2CCCCC2)c2ccccc2C1=O` [4-piperidin-1-ylnaphthalene-1,2-dione], the IC50 came out at 2.39 µM. The compound `COC1=CC(=O)C=C(OC)C1=O` [MLS002207260] had an IC50 of 3.54 µM.

Compound `COC(=O)[C@@H]1[C@@H](C(=O)OC)C2(c3ccccc3-c3ccccc32)N(c2ccc(Cl)cc2)N1C#N` [(3'S,4'R)-1'-(4-chlorophenyl)-2'-cyanospiro[fluorene-9,5'-pyrazolidine]-3',4'-dicarboxylic acid dimethyl ester] returned an IC50 above 80 µM. `O=C(COC(=O)c1n[nH]c2ccccc12)c1cccc(Br)c1` [[2-(3-bromophenyl)-2-oxoethyl] 1H-indazole-3-carboxylate] registered an IC50 above 80 µM. Compound `O=C(C1=C(c2ccccc2)C(=O)c2ccccc2C1=O)c1ccccc1` [2-benzoyl-3-phenylnaphthoquinone] gave an IC50 of 7.24 µM.

`O=C(CSc1nnc(CCCN2C(=O)c3cccc4cccc(c34)C2=O)n1-c1ccccc1)N1CCN(CCO)CC1` [2-[3-[5-[[2-[4-(2-hydroxyethyl)-1-piperazinyl]-2-oxoethyl]thio]-4-phenyl-1,2,4-triazol-3-yl]propyl]benzo[de]isoquinoline-1,3-dione]: the IC50 amounted to 7.31 µM.

In turn, `CCn1cc(C(=O)NCc2ccc3c(c2)OCO3)c2cc(OC)c(OC)cc2c1=O` [2-ethyl-1-keto-6,7-dimethoxy-N-piperonyl-isoquinoline-4-carboxamide] showed an IC50 of 18.9 µM. `Cc1ccc(SC2=C(Sc3ccc(C)cc3)C(=O)c3ccccc3C2=O)cc1` [MLS000756557] displayed an IC50 of 20 µM. Consider `CC[C@H](C)C=C(C)/C=C/C1=CC2=C(Cl)C(=O)[C@@](C)(OC(C)=O)C(=O)C2=CO1` [SMR000470870], for which the IC50 was above 80 µM. On to `O=C1C=C(NCc2ccccc2)c2ccccc2C1=O` [SMR000282064], for which the IC50 was determined as 1.9 µM.

The same experiment, now with this note: inactive by the depositor's call.
Turning to `Nc1ccc(S(=O)(=O)c2cc(O)c3ccccc3c2O)cc1` [SMR001570953], the IC50 was found to be 59.9 µM.

`CC(C)Nc1nnc(SCC(=O)Nc2ccc3c(c2)C(=O)c2ccccc2C3=O)s1` [MLS000390413] registered an IC50 of 22.3 µM.

`Cc1ccc(-n2c3nc(=O)[nH]c(=O)c-3cc3cc([N+](=O)[O-])ccc32)cc1C`: 36.6 µM corresponded to half-maximal inhibition (IC50).

Compound `COC(=O)c1ccc(NC(=O)CSc2n[nH]c(-c3ccncc3)n2)cc1` returned an IC50 of 22.5 µM. The same measure, in the same setting: to `CN(C)c1ccc(Cc2cc3c(O)ccc(O)c3cc(Cc3ccc(N(C)C)cc3)c2=O)cc1` [SMR001565845] belongs 73.6 µM. On to `COc1ccc(OC)c2nc(O)c(CCNC(=O)c3cc4ccccc4o3)cc12` [SMR000018515], for which the IC50 came out at 23.8 µM. `Cc1nc(COC(=O)c2cc(O)c3ccccc3c2O)cs1` [(2-methyl-1,3-thiazol-4-yl)methyl 1,4-bis(oxidanyl)naphthalene-2-carboxylate] yielded an IC50 of 25 µM. The same measure, in the same setting: to `O=S(=O)(Nc1cc(Sc2nc[nH]n2)c(O)c2ccccc12)c1ccccc1` [N-[4-oxidanyl-3-(1H-1,2,4-triazol-5-ylsulfanyl)naphthalen-1-yl]benzenesulfonamide] belongs 57.8 µM; to `O=C1C(Cl)=C(NC(=O)c2ccccc2)C(=O)C(Cl)=C1NC(=O)c1ccccc1` [N-[4-benzamido-2,5-bis(chloranyl)-3,6-bis(oxidanylidene)cyclohexa-1,4-dien-1-yl]benzamide], 39.2 µM.

The compound `COP(=O)(OC)c1ccc(NCc2cc(O)ccc2O)cc1` [MLS002702382] had an IC50 of 26.2 µM.

Source of the values: BindingDB's records for doi:10.7270/Q23F4N3R (Burnham Center For Chemical Genomics, 2011).
